Test results reported in patent US10173968B2, “Bishydrazone-based antifungal agents” (University of Kentucky Research Foundation, priority 2016, dated 2019).
Read-outs that look alike come from different tables or passages of the source.

Experiments:
C. albicans ATCC 1003 = experiment: Antifungal MIC, CLSI M27-A3 microbroth dilution; type: cell-based, Candida albicans
Description: (§1) In vitro MIC testing was performed according to the CLSI M27-A3 standard microbroth dilution methodology for the susceptibility testing of yeasts with minor modifications.

C. albicans ATCC 10231 = experiment: Antifungal MIC, CLSI M27-A3 microbroth dilution; type: cell-based, Candida albicans; conditions: C. albicans ATCC 10231, resistant to FLC, ITC, and VOR
Description: as §1

C. albicans ATCC 1237 = experiment: Antifungal MIC, CLSI M27-A3 microbroth dilution; type: cell-based, Candida albicans; conditions: ITC, and VOR
Description: as §1

C. albicans ATCC 2310 = experiment: Antifungal MIC, CLSI M27-A3 microbroth dilution; type: cell-based, Candida albicans; conditions: C. albicans ATCC 2310, susceptible to FLC, ITC, and VOR
Description: as §1

C. albicans ATCC 2876 = experiment: Antifungal MIC, CLSI M27-A3 microbroth dilution; type: cell-based, Candida albicans; conditions: C. albicans ATCC 2876, susceptible to FLC, ITC, and VOR
Description: as §1

C. albicans ATCC 64124 = experiment: Antifungal MIC, CLSI M27-A3 microbroth dilution; type: cell-based, Candida albicans; conditions: C. albicans ATCC 64124, resistant to FLC, ITC, and VOR
Description: as §1

C. albicans ATCC 90819 = experiment: Antifungal MIC, CLSI M27-A3 microbroth dilution; type: cell-based, Candida albicans; conditions: C. albicans ATCC 90819, resistant to FLC, ITC, and VOR
Description: as §1

A. baumannii ATCC 19606 = experiment: Antibacterial MIC, double-dilution method; type: cell-based; conditions: Acinetobacter baumannii, ATCC19606
Description: (§2) MIC values were determined against a variety of Gram-positive (strains A-D) and Gram-negative (E-J) bacterial and mycobacterial (K) strains using the double-dilution method, as previously published. Preliminary screening was performed using 500 μM of each compound.

B. subtilis 168 = experiment: Antibacterial MIC, double-dilution method; type: cell-based; conditions: Bacillus subtilis, strain A, Gram-positive
Description: as §2

E. cloacae ATCC 13047 = experiment: Antibacterial MIC, double-dilution method; type: cell-based; conditions: Enterobacter cloacae, ATCC13047
Description: as §2

E. coli MC1061 = experiment: Antibacterial MIC, double-dilution method; type: cell-based; conditions: Escherichia coli, strain G, Gram-negative, read-out: MIC
Description: as §2

K. pneumoniae ATCC 27736 = experiment: Antibacterial MIC, double-dilution method; type: cell-based; conditions: Klebsiella pneumoniae, ATCC27736
Description: as §2

[1] = tested on: L. monocytogenes ATCC 19115; experiment: Antibacterial MIC, double-dilution method; type: cell-based; conditions: Listeria monocytogenes, ATCC19115, strain B, Gram-positive, read-out: MIC
Description: as §2

M. smegmatis MC2-155 = experiment: Antibacterial MIC, double-dilution method; type: cell-based; conditions: Mycolicibacterium smegmatis, MC2155, strain K, mycobacterial, read-out: MIC
Description: as §2

MRSA = experiment: Antibacterial MIC, double-dilution method; type: cell-based; conditions: Staphylococcus aureus
Description: as §2

P. aeruginosa ATCC 27853 = experiment: Antibacterial MIC, double-dilution method; type: cell-based; conditions: Pseudomonas aeruginosa, ATCC27853
Description: as §2

S. enterica ATCC 14028 = experiment: Antibacterial MIC, double-dilution method; type: cell-based; conditions: Salmonella enterica, ATCC14028
Description: as §2

VRE = experiment: Antibacterial MIC, double-dilution method; type: cell-based; conditions: Enterococcus, strain D, Gram-positive, read-out: MIC
Description: as §2

[2] = strain E, Gram-negative, range 0.5 to 500 μM, read-out: MIC
[3] = strain F, Gram-negative, range 0.5 to 500 μM, read-out: MIC
[4] = strain H, Gram-negative, range 0.5 to 500 μM, read-out: MIC
[5] = strain C, Gram-positive, range 0.5 to 500 μM, read-out: MIC
[6] = strain I, Gram-negative, range 0.5 to 500 μM, read-out: MIC
[7] = strain J, Gram-negative, range 0.5 to 500 μM, read-out: MIC
[8] = Candida albicans, ATCC1003, C. albicans ATCC 1003, converted from μg/mL, read-out: MIC
[9] = Candida albicans, ATCC1003, read-out: MIC
[10] = Candida albicans, ATCC10231, converted from μg/mL, read-out: MIC
[11] = Candida albicans, ATCC10231, read-out: MIC
[12] = Candida albicans, ATCC1237, C. albicans ATCC 1237, resistant to FLC, converted from μg/mL, read-out: MIC
[13] = Candida albicans, ATCC1237, C. albicans ATCC 1237, resistant to FLC, read-out: MIC
[14] = Candida albicans, ATCC2310, converted from μg/mL, read-out: MIC
[15] = Candida albicans, ATCC2310, read-out: MIC
[16] = Candida albicans, ATCC2876, converted from μg/mL, read-out: MIC
[17] = Candida albicans, ATCC2876, read-out: MIC
[18] = Candida albicans, ATCC64124, converted from μg/mL, read-out: MIC
[19] = Candida albicans, ATCC64124, read-out: MIC
[20] = Candida albicans, ATCC90819, converted from μg/mL, read-out: MIC
[21] = Candida albicans, ATCC90819, read-out: MIC
[22] = strain E, Gram-negative, converted from μM, read-out: MIC
[23] = strain H, Gram-negative, converted from μM, read-out: MIC
[24] = strain I, Gram-negative, converted from μM, read-out: MIC

Compound	MIC (A. baumannii ATCC 19606; [2]) [µM]	MIC (E. cloacae ATCC 13047; [3]) [µM]	MIC (E. coli MC1061; converted from μM) [µg/mL]	MIC (E. coli MC1061; range 0.5 to 500 μM) [µM]	MIC (K. pneumoniae ATCC 27736; [4]) [µM]	MIC ([1]; converted from μM) [µg/mL]	MIC ([1]; range 0.5 to 500 μM) [µM]	MIC (M. smegmatis MC2-155; converted from μM) [µg/mL]	MIC (M. smegmatis MC2-155; range 0.5 to 500 μM) [µM]	MIC (P. aeruginosa ATCC 27853; [6]) [µM]	MIC (VRE; converted from μM) [µg/mL]	MIC (VRE; range 0.5 to 500 μM) [µM]	MIC (C. albicans ATCC 1003; [8]) [µM]	MIC (C. albicans ATCC 1003; [9]) [µg/mL]	MIC (C. albicans ATCC 10231; [10]) [µM]	MIC (C. albicans ATCC 10231; [11]) [µg/mL]	MIC (C. albicans ATCC 1237; [12]) [µM]	MIC (C. albicans ATCC 1237; [13]) [µg/mL]	MIC (C. albicans ATCC 2310; [14]) [µM]	MIC (C. albicans ATCC 2310; [15]) [µg/mL]	also measured
C[C@@H]1[C@H](O)[C@@H](C)/C=C/C=C/C=C/C=C/C=C/C=C/C=C/[C@H](O[C@@H]2O[C@H](C)[C@@H](O)[C@H](N)[C@@H]2O)C[C@@H]2O[C@](O)(C[C@@H](O)C[C@@H](O)[C@H](O)CC[C@@H](O)C[C@@H](O)CC(=O)O[C@H]1C)C[C@H](O)[C@H]2C(=O)O [AmB, amphotericin B, reference compound]																					MIC (C. albicans ATCC 1003; C. albicans ATCC 1003, converted from μg/mL): (4.2) μM; MIC (C. albicans ATCC 1003; C. albicans ATCC 1003, range 0.5 to […]): 3.9 µg/mL; MIC (C. albicans ATCC 10231): 3.9 µg/mL; MIC (C. albicans ATCC 10231; converted from μg/mL): (4.2) μM; MIC (C. albicans ATCC 1237; C. albicans ATCC 1237, resistant to FLC): 3.9 µg/mL; MIC (C. albicans ATCC 1237; C. albicans ATCC 1237, resistant to FLC, converted from μg/mL): (4.2) μM; MIC (C. albicans ATCC 2310): 3.9 µg/mL; MIC (C. albicans ATCC 2310; converted from μg/mL): (4.2) μM; MIC (C. albicans ATCC 2876): 3.9 µg/mL; MIC (C. albicans ATCC 2876; converted from μg/mL): (4.2) μM; MIC (C. albicans ATCC 64124): 2.0 to 3.9 µg/mL; MIC (C. albicans ATCC 64124; converted from μg/mL): (2.1-4.2) μM; MIC (C. albicans ATCC 90819): 2.0 µg/mL; MIC (C. albicans ATCC 90819; converted from μg/mL): (2.1) μM
Cl.Cl.N=C(N)N/N=C/c1ccc(-c2ccc(/C=N/NC(=N)N)cc2)cc1 [Compound 3A, (2E,2′E)-2,2′-([1,1′-Biphenyl]-4,4′-diylbis(methanylylidene))bis(hydrazine-1-carboximidamide) dihydrochloride]	> 500	> 500	> 198	> 500	> 500	0.4	1	> 198	> 500	> 500	0.8	2	19.7	7.8	39.5	15.6	39.5	15.6	> 79.2	> 31.3	MIC (A. baumannii ATCC 19606): > 198 µg/mL; MIC (B. subtilis 168; converted from μM): > 198 µg/mL; MIC (B. subtilis 168; range 0.5 to 500 μM): > 500 µM; MIC (E. cloacae ATCC 13047): > 198 µg/mL; MIC (K. pneumoniae ATCC 27736): > 198 µg/mL; MIC (MRSA; strain C, Gram-positive, converted from μM, read-out: MIC): 1.5 µg/mL; MIC (MRSA; [5]): 3.9 µM; MIC (P. aeruginosa ATCC 27853): > 198 µg/mL; MIC (S. enterica ATCC 14028): > 198 µg/mL; MIC (S. enterica ATCC 14028; [7]): > 500 µM; MIC (C. albicans ATCC 2876; [16]): 19.7 µM; MIC (C. albicans ATCC 2876; [17]): 7.8 µg/mL; MIC (C. albicans ATCC 64124; [18]): > 79.2 µM; MIC (C. albicans ATCC 64124; [19]): > 31.3 µg/mL; MIC (C. albicans ATCC 90819; [20]): > 79.2 µM; MIC (C. albicans ATCC 90819; [21]): > 31.3 µg/mL
C/C(=N\NC(=N)N)c1ccc(Oc2ccc(/C(C)=N/NC(=N)N)cc2)cc1.Cl.Cl [Compound 4E, (2E,2′E)-2,2′-((Oxybis(4,1-phenylene))bis(ethan-1-yl-1-ylidene))bis(hydrazine-1 carboximidamide), dihydrochloride]	62.5	250	54.9	125	62.5	27.5	62.5	54.9 to 110	125 to 250	62.5	1.7	3.9	17.8	7.8	17.8	7.8	17.8	7.8	17.8	7.8	MIC (A. baumannii ATCC 19606; [22]): 27.5 µg/mL; MIC (E. cloacae ATCC 13047; strain F, Gram-negative, converted from μM, read-out: MIC): 110 µg/mL; MIC (K. pneumoniae ATCC 27736; [23]): 27.5 µg/mL; MIC (P. aeruginosa ATCC 27853; [24]): 27.5 µg/mL; MIC (C. albicans ATCC 2876; [16]): 8.9 µM; MIC (C. albicans ATCC 2876; [17]): 3.9 µg/mL; MIC (C. albicans ATCC 64124; [18]): 17.8 µM; MIC (C. albicans ATCC 64124; [19]): 7.8 µg/mL; MIC (C. albicans ATCC 90819; [20]): 17.8 µM; MIC (C. albicans ATCC 90819; [21]): 7.8 µg/mL
C/C(=N\NC(=N)N)c1ccc(/C(C)=N/NC(=N)N)cc1.Cl.Cl [Compound 4G, (2E,2′E)-2,2′-(1,4-Phenylenebis(ethan-1-yl-1-ylidene))bis(hydrazine-1-carboximidamide) dihydrochloride]	500	> 500	> 173	> 500	500	86.8	250	> 173	> 500	250	43.4	125	> 90.1	> 31.3	> 90.1	> 31.3	> 90.1	> 31.3	> 90.1	> 31.3	MIC (A. baumannii ATCC 19606; [22]): 173 µg/mL; MIC (B. subtilis 168; converted from μM): 86.8 µg/mL; MIC (B. subtilis 168; range 0.5 to 500 μM): 250 µM; MIC (E. cloacae ATCC 13047): > 173 µg/mL; MIC (K. pneumoniae ATCC 27736; [23]): 173 µg/mL; MIC (MRSA): > 173 µg/mL; MIC (MRSA; [5]): > 500 µM; MIC (P. aeruginosa ATCC 27853; [24]): 86.8 µg/mL; MIC (S. enterica ATCC 14028; strain J, Gram-negative, converted from μM, read-out: MIC): 86.8 to 173 µg/mL; MIC (S. enterica ATCC 14028; [7]): 250 to 500 µM; MIC (C. albicans ATCC 2876; [16]): > 90.1 µM; MIC (C. albicans ATCC 2876; [17]): > 31.3 µg/mL; MIC (C. albicans ATCC 64124; [18]): 90.1 µM; MIC (C. albicans ATCC 64124; [19]): 31.3 µg/mL; MIC (C. albicans ATCC 90819; [20]): > 90.1 µM; MIC (C. albicans ATCC 90819; [21]): > 31.3 µg/mL
